Laboratory results taken from patent US20070044168A1, “Transplantable tumor model” (Northwestern University, priority 2005, published 2007).

System: clonal CB1 zebrafish
Test: Tumor induction by continuous immersion in DEN solution
Format: in vivo
Settings: 100 ppm DEN immersion for 8 weeks
Protocol: Tumor induction. Sixty-five 2.5-month-old fish from the clonal CB1 line were used for tumor induction by continuous immersion in N-nitrosodiethylamine (DEN) solution (100 ppm) during the 8 weeks. During DEN, exposure fish were maintained in 20-L acrylic tanks equipped with a mechanical filter and an automatic heater. The filters were cleaned twice weekly. The complete exchange of water containing the carcinogen was done every 2 weeks. The water temperature was maintained at 26±0.5° C. Following completion of DEN exposure the fish were transferred to a 20-L system tank and remained under observation for up to 9 months.
The grossly visible tumors began to emerge in fish 3 to 7 months after the beginning of exposure to DEN. Four spontaneous tumors diagnosed as acinar cell carcinomas of the pancreas were detected in 10.5- to 18-month-old female CB1 fish (See, e.g., FIG. 1G).

For `CCN(CC)N=O` [DEN, N-nitrosodiethylamine], the “emergence of grossly visible tumors after the beginning of exposure” value (CB1 fish) was 3 to 7 months and the “primary tumors localized in the abdominal area” value (sixty-five 2.5-month-old CB1 fish, observed up to 9 months) was 35.
